# Measured values published in PMC12843386, “Ly6/uPAR Protein from Asterias rubens Starfish Stimulates Migration and Invasion of Human Epithelial and Immune Cells” (Marine Drugs, 2025).
# Where two headings read alike, the source gives them in different places. Bridges are numbered along the chain shown (N, C = ends). Where no end group is shown, it is not given here.
# B1: Lynx1: human protein Lynx1 found in the nervous system, skin, and lungs (protein, UniProt P0DP58 21-91, looked up)
# Ly-6/neurotoxin-like protein 1: LDCHVCAYNGDNCFNPMRCPAMVAYCMTTRTYYTPTRMKVSKSCVPRCFETVYDGYSKHASTTSCCQYDLC
# B2: SLURP-1: human-secreted epithelial protein SLURP-1 (protein, UniProt P55000 23-103, looked up)
# Secreted Ly-6/uPAR-related …: LKCYTCKEPMTSASCRTITRCKPEDTACMTTLVTVEAEYPFNQSPVVTRSCSSSCVATDPDSIGAAHLIFCCFRDLCNSEL
# Tests used:
# HaCaT keratinocytes = assay: Wound-healing (scratch) assay, collective migration of HaCaT keratinocytes; type: cell-based, human; details: 10 µM peptide, 24 h, serum-free; % of untreated control; n = 14 (Figure 4a,b)
# Experimental: Human HaCaT keratinocytes (ATCC, Manassas, VA, USA) were grown (37 °C, 8% CO2) in a DME medium with phenol red (PanEco, Moscow, Russia), 10% fetal calf serum (Thermo Fisher Scientific, Waltham, […], USA), and 2 mM L-glutamine (PanEco). Human peripheral blood monocytes were isolated from human donors’ blood (informed written consent was obtained from the donors) with Lymphosep media (MP Biomedicals, Irvine, CA, USA) and cultivated in RPMI-1640 medium with phenol red (PanEco, Russia), 10% fetal calf serum (Thermo Fisher Scientific), and 2 mM L-glutamine (PanEco). All cells were routinely tested for the absence of mycoplasma contamination (Mycoreport kit, Evrogen, Moscow, Russia).
# The in vitro wound healing (scratch) assay was performed as described in [35]. In brief, HaCaT cells were seeded in 96-well cell culture plates (5 × 10^4 cells/well) and grown for 24 h. […] Pictures were analyzed after 0 and 24 h at 20× magnification at CloneSelect Imager (Molecular Devices, San Jose, CA, USA). The center of the plate was marked as a central reference point to ensure that the same area was recorded during the time course. Digital images were taken, and the scratch area was quantified using ImageJ 1.54f software (NIH, Bethesda, MD, USA) and MS Excel 365 (Microsoft, Redmond, WA, USA) software by measuring the % of the scratch surface occupied by migrating cells.
# [1] = ELISA binding to immobilized membrane fraction of A. rubens arm tip; parameters: species or system Asterias rubens; details: detection by anti-Lystar5 serum, n = 4 (Figure 3b)
# Excerpt: Figure 2 Design of the peptides mimicking the loop and “head” regions of Lystar5 and ELISA experiments. (a) Amino acid sequence alignment of Lystar5 and the peptides: loop I (rose), loop II (orange), loop III (blue), and head (green). Cys residues are shown in gold. Disulfide bonds are shown in brackets. Sequences of the peptides are highlighted by colors corresponding to the Lystar5 loops. The amino acids changed to increase the peptides’ stability are designated by lowercase letters. (b) Spatial structure of Lystar5 predicted from the sequence using ESMFold with regions corresponding to the synthesized peptides colored as shown in panel (a,c). Design of ELISA experiments for proof of detection of Lystar5 and the peptides by the anti-Lystar5 serum of immunized mice (left), identification of the active site of Lystar5, and evaluation of the interaction of Lystar5 and the peptides using the immobilized membrane fraction of different A. rubens tissues (center), and study of complex formation between nAChR and integrin subunits in HaCAT keratinocytes (right). […] Recombinant analogue of Lynx2 was used as a negative control. […] Bound compounds were detected by the anti-Lystar5 serum of immunized mouse. […]
# [2] = cited from earlier work
# Excerpt: Ly6/uPAR proteins from different organisms are currently being considered as prototypes for new drugs.
molecule,measurement,setting,value
"GEDGCTAATTQLGKRYFADKSRPAWGAVECG (disulfide 5-30 (inferred)) [loop III, C-amidated peptide mimicking loop III of Lystar5: […]]","collective migration of HaCaT keratinocytes (scratch assay), wound closure",HaCaT keratinocytes,did not affect the collective migration
"VLKTCTSRQDRCG (disulfide 5-12 (inferred)) [head, C-amidated peptide mimicking the ""head"" region of Lystar5: […]]",binding to the immobilized membrane fraction of the arm tip,[1],neither Lystar5 nor its loops or “head” bound
same,"collective migration of HaCaT keratinocytes (scratch assay), wound closure",HaCaT keratinocytes,did not affect the collective migration
α-cobratoxin,anti-cancer activity,"[2]; snake toxin from Naja kaouthia, ref [45]",effective anti-cancer agents
B1,anti-cancer activity,"[2]; human protein found in the nervous system, skin, and lungs, ref [47],[48]",effective anti-cancer agents
same,cognitive dysfunctions related to the cholinergic system decline,[2]; ref [49],ameliorates cognitive dysfunctions
B2,anti-cancer activity,"[2]; human-secreted epithelial protein, ref [46]",effective anti-cancer agents
